Assay results published in patent US20230312524A1, “ALPHA1A-ADRENERGIC RECEPTOR AGONISTS AND METHODS OF USE” (CuraSen Therapeutics, Inc., priority 2020, published 2023).
Read-outs that look alike come from different tables or passages of the source.

Target: T1, α1A-ARS (Homo sapiens, UniProt P35348)
T1 sequence (P35348 1-466): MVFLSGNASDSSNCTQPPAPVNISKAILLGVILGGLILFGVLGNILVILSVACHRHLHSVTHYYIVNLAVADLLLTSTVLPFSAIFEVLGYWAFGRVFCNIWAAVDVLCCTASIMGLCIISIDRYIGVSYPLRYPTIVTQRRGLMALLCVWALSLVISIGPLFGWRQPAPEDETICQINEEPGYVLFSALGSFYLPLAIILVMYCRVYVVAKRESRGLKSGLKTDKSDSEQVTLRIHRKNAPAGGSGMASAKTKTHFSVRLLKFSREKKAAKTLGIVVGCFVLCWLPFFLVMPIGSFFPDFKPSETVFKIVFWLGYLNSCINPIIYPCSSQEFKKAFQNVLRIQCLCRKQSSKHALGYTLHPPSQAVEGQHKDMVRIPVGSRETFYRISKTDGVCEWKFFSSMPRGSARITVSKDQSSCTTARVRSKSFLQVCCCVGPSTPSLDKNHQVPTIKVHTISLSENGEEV
Test: Calcium flux assay (Calcium 6 dye) in cells expressing an α1-AR
Type: cell-based
Settings: for Emax: read-out: Average Emax
Description: Calcium flux experimental design: alpha-1 adrenergic receptors (α1-ARs) couple to Gq proteins, which results in downstream activation of phospholipase C and release of calcium from intracellular stores. Intracellular calcium increase upon α1-AR activation can be detected by Calcium 6 dye.
Cell preparation: cells expressing an α1-AR were washed in warmed phosphate-buffered saline to remove medium and harvested using versene (Caisson Labs, catalog #EDL01).
Media was removed from cells by tapping plates upside-down on absorbent wipes, followed by 15 second upside-down 50×g centrifugation, again on absorbent wipes. 12 μL cell dye solution was added to cells using a reagent dispenser (Integra viaFILL) and cells were incubated for 90 minutes at 37° C., 5% CO2.
Compound preparation: candidate alpha-adrenergic compounds, dissolved to 10 mM in DMSO, were diluted in_assay buffer (HBSS/H-EPES containing 2 mM CaCl2 and 2 mM probenecid sodium salt). […] On all assay plates, vehicle (DMSO) and positive control (10 μM epinephrine) conditions were included on the plate, as well as a dose-response curve of epinephrine. […] 384 well compound plates were centrifuged briefly at 250×g, sealed (Axygen PCR-SP) and incubated at 37° C. until the 90 minute cell dye incubation was complete.
Calcium 6 stained cells and 384 well compound plates were loaded onto the Flexstation and incubated on the machine for 5 minutes before initiating the assay.
For each assay well, baseline Calcium 6 fluorescence was detected for 18 seconds prior to 12 μL compound addition at 12 μL per second. Changes in Calcium 6 fluorescence were detected for a further 22 seconds, for a total read time of 40 seconds. All detection was performed with medium gain sensitivity, bottom read, with 6 flashes per read.
Data analysis: for calcium flux, analysis of maximum change from baseline over the 40-second read time was determined using Softmax Pro and data was exported as raw text files. Potency estimates (EC50) were derived from dose response curves (maximum change from baseline versus the log concentration of test compound) fit by four-parameter nonlinear regression using Graphpad Prism. Efficacy was determined by comparing the magnitude of the test compound signal window (fitted curve max−min) with the signal window of the full agonist control, epinephrine. […] All experiments were repeated a minimum of three times, with the average (mean) potency and maximum effect relative to the within-plate full agonist dose-response comparator reported.

[1] = calcium flux, α1A-AR, maximum effect relative to full agonist epinephrine
[2] = calcium flux, α1A-AR, mean of at least three experiments, read-out: Average PEC50

| Emax [1] [%] | SMILES | EC50 [2] [nM] | Emax [%] | EC50 [nM] |
| --- | --- | --- | --- | --- |
| > 61 | FC(F)(F)c1ccc(CC2=NCCN2)c(-c2ccccc2)c1 [Compound 75] | 10 to 977 | – | – |
| – | FCc1cc(Cl)ccc1CC1=NCCN1 [Compound 76] | 10 to 977 | 21 to 60 | – |
| – | FC(F)(F)c1ccc(CC2=NCCN2)c(C2CC2)c1 [Compound 77] | 10 to 977 | > 61 | – |
| – | CCc1cc(C(F)(F)F)ccc1CC1=NCCN1 [Compound 78] | < 9.77 | > 61 | – |
| > 61 | Fc1ccc(CC2=NCCN2)c(-c2ccccc2)c1 [Compound 79] | < 9.77 | – | – |
| – | Fc1ccc(CC2=NCCN2)c(C(F)(F)F)c1 [Compound 80] | > 1000 | 21 to 60 | – |
| – | COc1ccc(CC2=NCCN2)c(C(F)(F)F)c1 [Compound 81] | 10 to 977 | > 61 | – |
| – | FC(F)c1cc(Cl)ccc1CC1=NCCN1 [Compound 82] | 10 to 977 | 21 to 60 | – |
| – | N#Cc1ccc(CC2=NCCN2)c(C(F)(F)F)c1 [Compound 83] | > 1000 | 21 to 60 | – |
| – | CC(C)c1cc(Cl)ccc1CC1=NCCN1 [Compound 84] | 10 to 977 | 21 to 60 | – |
| – | FC(F)(F)Oc1cc(Cl)ccc1CC1=NCCN1 [Compound 85] | 10 to 977 | 21 to 60 | – |
| – | Cc1ccc(Cl)cc1CC1=NCCN1 [Compound 86] | 10 to 977 | 21 to 60 | – |
| – | Cc1cccc(Cl)c1CC1=NCCN1 [Compound 87] | – | 21 to 60 | 10 to 977 |
| – | CC(C)Cc1cc(Cl)ccc1CC1=NCCN1 [Compound 88] | 10 to 977 | > 61 | – |
| – | Cc1c(Cl)cccc1CC1=NCCN1 [Compound 89] | > 1000 | 21 to 60 | – |
| – | FC(F)(F)Cc1cc(Cl)ccc1CC1=NCCN1 [Compound 90] | > 1000 | 21 to 60 | – |
| > 61 | Clc1ccc(CC2=NCCN2)c(-n2cccc2)c1 [Compound 91] | 10 to 977 | – | – |
| – | FC(F)(F)c1coc2c(CC3=NCCN3)cccc12 [Compound 92] | > 1000 | 21 to 60 | – |
| > 61 | FC(F)(F)c1ccc(CC2=NCCN2)c(-n2cccn2)c1 [Compound 93] | 10 to 977 | – | – |
| 21 to 60 | Cc1coc(-c2cc(Cl)ccc2CC2=NCCN2)n1 [Compound 94] | 10 to 977 | – | – |
| 21 to 60 | FC(F)(F)c1ccc(CC2=NCCN2)c(C2CCCCC2)c1 [Compound 96] | > 1000 | – | – |
| < 20 | CN(CC(F)(F)F)c1cc(C(F)(F)F)ccc1CC1=NCCN1 [Compound 97] | > 1000 | – | – |
| – | Cc1cc2c(C)c(CC3=NCCN3)cc(Cl)c2o1 [Compound 98] | 10 to 977 | 21 to 60 | – |

| Emax [1] [%] | SMILES | EC50 [2] [nM] | Emax [%] | EC50 [nM] |
| --- | --- | --- | --- | --- |
| – | CCc1c(Cl)cccc1CC1=NCCN1 [Compound 99] | > 1000 | 21 to 60 | – |
| – | Cc1c(CC2=NCCN2)cc(Cl)c2[nH]ccc12 [Compound 100] | < 9.77 | > 61 | – |
| – | Cc1c(CC2=NCCN2)cc(Cl)c2c1ccn2C [Compound 101] | < 9.77 | > 61 | – |
| – | CC(C)Oc1cc(Cl)ccc1CC1=NCCN1 [Compound 102] | 10 to 977 | 21 to 60 | – |
| > 61 | Clc1ccc(CC2=NCCN2)c(-c2ccon2)c1 [Compound 104] | 10 to 977 | – | – |
| – | Cc1c(CC2=NCCN2)cc(Cl)c2c1cnn2C [Compound 105] | 10 to 977 | 21 to 60 | – |
| – | Cc1c(CC2=NCCN2)cc(Cl)c2nn(C)cc12 [Compound 106] | 10 to 977 | 21 to 60 | – |
| – | Cc1coc2c(Cl)cc(CC3=NCCN3)c(C)c12 [Compound 107] | < 9.77 | 21 to 60 | – |
| – | Cc1c(CC2=NCCN2)cc(Cl)c2[nH]ncc12 [Compound 108] | 10 to 977 | > 61 | – |
| > 61 | Clc1cccc(CC2=NCCN2)c1-n1cccc1 [Compound 109] | 10 to 977 | – | – |
| > 61 | CCc1cc(S(=O)(=O)CF)ccc1CC1=NCCN1 [Compound 110] | 10 to 977 | – | – |
| > 61 | CCc1cc(S(=O)(=O)C(F)(F)F)ccc1CC1=NCCN1 [Compound 111] | 10 to 977 | – | – |
| > 61 | CCc1cc(S(=O)(=O)C(F)F)ccc1CC1=NCCN1 [Compound 112] | 10 to 977 | – | – |
| > 61 | CCc1cc(S(C)(=O)=O)ccc1CC1=NCCN1 [Compound 113] | 10 to 977 | – | – |
| – | FC(F)Oc1cc(Cl)ccc1CC1=NCCN1 [Compound 114] | 10 to 977 | 21 to 60 | – |
| 21 to 60 | Cc1cccn1-c1c(Cl)cccc1CC1=NCCN1 [Compound 115] | > 1000 | – | – |
| > 61 | Cc1cccn1-c1cc(Cl)ccc1CC1=NCCN1 [Compound 116] | 10 to 977 | – | – |
| – | CC(C)C(F)(F)c1cc(Cl)ccc1CC1=NCCN1 [Compound 117] | 10 to 977 | 21 to 60 | – |
| < 20 | Clc1ccc(CC2=NCCN2)c(C2CCOCC2)c1 [Compound 118] | > 1000 | – | – |
| < 20 | Clc1ccc(CC2=NCCN2)c(CC2CCOCC2)c1 [Compound 119] | > 1000 | – | – |
| < 20 | Clc1ccc(CC2=NCCN2)c(Cc2ccccc2)c1 [Compound 120] | > 1000 | – | – |
| – | CCC(F)(F)c1cc(Cl)ccc1CC1=NCCN1 [Compound 121] | 10 to 977 | 21 to 60 | – |
| > 61 | Clc1ccc(CC2=NCCN2)c(N2CCCC2)c1 [Compound 122] | 10 to 977 | – | – |

| Emax [1] [%] | SMILES | EC50 [2] [nM] | Emax [%] | EC50 [nM] |
| --- | --- | --- | --- | --- |
| – | Cc1cc(Cl)cc(C)c1CC1=NCCN1 [Compound 123] | 10 to 977 | > 61 | – |
| 21 to 60 | COCc1cc(Cl)ccc1CC1=NCCN1 [Compound 124] | 10 to 977 | – | – |
| – | Cc1cc(Cl)cc(Cl)c1CC1=NCCN1 [Compound 125] | 10 to 977 | > 61 | – |
| – | Cc1c(CC2=NCCN2)cccc1C(F)(F)F [Compound 126] | 10 to 977 | 21 to 60 | – |
| – | Cc1ccc(C(F)(F)F)cc1CC1=NCCN1 [Compound 127] | 10 to 977 | > 61 | – |
| – | Cc1cc(OC(F)(F)F)ccc1CC1=NCCN1 [Compound 128] | 10 to 977 | 21 to 60 | – |
| – | Cc1cc(OC(F)F)ccc1CC1=NCCN1 [Compound 129] | 10 to 977 | 21 to 60 | – |
| – | Cc1cc(CC2=NCCN2)cc(C(F)(F)F)c1 [Compound 130] | 10 to 977 | > 61 | – |
| – | FC(F)(F)c1cccc(CC2=NCCN2)c1Cl [Compound 131] | 10 to 977 | 21 to 60 | – |
| – | FC(F)(F)c1ccc(Cl)c(CC2=NCCN2)c1 [Compound 132] | 10 to 977 | > 61 | – |
| – | FC(F)(F)c1ccc(CC2=NCCN2)c(Cl)c1 [Compound 133] | 10 to 977 | 21 to 60 | – |
| – | FC(F)(F)c1cccc(Cl)c1CC1=NCCN1 [Compound 134] | 10 to 977 | > 61 | – |
| – | FC(F)(F)Oc1ccc(CC2=NCCN2)c(Cl)c1 [Compound 135] | 10 to 977 | 21 to 60 | – |
| – | FC(F)Oc1ccc(CC2=NCCN2)c(Cl)c1 [Compound 136] | 10 to 977 | 21 to 60 | – |
| – | CCC(F)(F)c1c(Cl)cccc1CC1=NCCN1 [Compound 137] | 10 to 977 | 21 to 60 | – |
| – | FC(F)c1ccc(CC2=NCCN2)c(Cl)c1 [Compound 138] | 10 to 977 | > 61 | – |
| 21 to 60 | Cc1c(CC2=NCCN2)ccc(S(C)(=O)=O)c1Cl [Compound 139] | > 1000 | – | – |
| > 61 | Cc1c(CC2=NCCN2)ccc(S(=O)(=O)CF)c1Cl [Compound 140] | > 1000 | – | – |
| > 61 | CCc1c(CC2=NCCN2)ccc(S(=O)(=O)CF)c1Cl [Compound 141] | > 1000 | – | – |
| – | C[C@@H](F)c1cc(Cl)ccc1CC1=NCCN1 [Compound 142] | 10 to 977 | 21 to 60 | – |
| 21 to 60 | CCc1c(CC2=NCCN2)ccc(S(C)(=O)=O)c1Cl [Compound 144] | > 1000 | – | – |
| < 20 | C[C@H](O)c1cc(Cl)ccc1CC1=NCCN1 [Compound 145] | > 1000 | – | – |
